pIC50: −log10 of the molar value. Like-named read-outs stand apart in the source and are kept apart here.
Tests used:
[1] = target: T1, IKKε (Homo sapiens, UniProt Q14164); test: In-vitro IKKε kinase assay ([γ33]ATP filter-plate); format: biochemical
T1 construct: His-tag; made in house; host or cells: Sf9 insect cells
T1 sequence (Q14164 1-716): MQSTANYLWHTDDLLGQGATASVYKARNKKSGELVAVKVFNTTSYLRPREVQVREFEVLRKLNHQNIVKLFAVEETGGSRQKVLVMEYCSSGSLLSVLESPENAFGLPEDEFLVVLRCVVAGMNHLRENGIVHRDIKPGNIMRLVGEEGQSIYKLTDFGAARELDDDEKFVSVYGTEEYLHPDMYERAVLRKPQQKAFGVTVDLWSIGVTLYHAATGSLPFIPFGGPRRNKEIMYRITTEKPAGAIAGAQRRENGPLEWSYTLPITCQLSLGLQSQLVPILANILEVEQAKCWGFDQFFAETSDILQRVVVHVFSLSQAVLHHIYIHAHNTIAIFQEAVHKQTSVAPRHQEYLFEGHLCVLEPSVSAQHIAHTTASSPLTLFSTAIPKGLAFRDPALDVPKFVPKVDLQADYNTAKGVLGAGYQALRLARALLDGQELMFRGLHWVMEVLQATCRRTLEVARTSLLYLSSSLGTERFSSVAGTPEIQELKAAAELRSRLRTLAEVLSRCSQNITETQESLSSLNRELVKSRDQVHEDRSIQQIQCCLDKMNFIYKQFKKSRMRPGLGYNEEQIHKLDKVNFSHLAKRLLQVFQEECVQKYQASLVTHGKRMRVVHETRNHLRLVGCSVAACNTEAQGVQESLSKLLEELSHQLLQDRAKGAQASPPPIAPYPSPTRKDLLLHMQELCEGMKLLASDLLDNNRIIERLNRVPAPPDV
Summary of the method: (§1)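 Phosphorylation of casein or myelin basic protein was counted by P-81 filter capture after 30-45 min reactions stopped with phosphoric acid, with counts normalized to DMSO after background subtraction. ATP was twice Km: 60 μM for TBK1 and 32 μM for IKKε, plus [γ33]ATP. Sf9-expressed His-tag enzymes were used at normal/sensitized levels of 0.1/0.02 μg/ml (TBK1) and 0.1/0.015 μg/ml (IKKε).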

[2] = target: T2, TBK1 (Homo sapiens, UniProt Q9UHD2); test: In-vitro TBK1 kinase assay ([γ33]ATP filter-plate); format: biochemical
T2 construct: His-tag; made in house; host or cells: Sf9 insect cells
T2 sequence (Q9UHD2 1-729): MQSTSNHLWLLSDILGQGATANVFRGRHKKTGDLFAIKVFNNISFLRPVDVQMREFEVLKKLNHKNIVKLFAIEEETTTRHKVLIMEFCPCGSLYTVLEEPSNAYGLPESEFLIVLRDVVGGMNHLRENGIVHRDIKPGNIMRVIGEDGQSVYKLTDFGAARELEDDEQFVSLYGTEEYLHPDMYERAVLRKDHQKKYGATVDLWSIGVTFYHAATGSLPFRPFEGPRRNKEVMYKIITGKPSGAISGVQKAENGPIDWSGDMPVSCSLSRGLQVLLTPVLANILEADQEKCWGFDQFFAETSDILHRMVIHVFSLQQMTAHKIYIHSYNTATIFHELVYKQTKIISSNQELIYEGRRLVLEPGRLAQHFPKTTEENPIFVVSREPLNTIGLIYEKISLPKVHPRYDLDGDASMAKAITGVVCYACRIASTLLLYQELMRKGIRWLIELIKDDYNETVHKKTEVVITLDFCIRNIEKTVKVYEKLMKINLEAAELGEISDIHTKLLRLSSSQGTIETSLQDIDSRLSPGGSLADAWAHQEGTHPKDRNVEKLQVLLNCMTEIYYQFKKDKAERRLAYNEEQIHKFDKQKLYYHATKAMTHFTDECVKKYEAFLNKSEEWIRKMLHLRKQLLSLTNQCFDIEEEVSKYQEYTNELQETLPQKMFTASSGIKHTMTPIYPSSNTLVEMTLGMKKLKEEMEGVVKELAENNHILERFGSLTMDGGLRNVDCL
Summary of the method: as §1

[3] = system: IKKε-mediated phosphorylation of IRF3; test: In-situ phosphorylation of IRF3 (pIRF3 Ser396 ELISA) in HEK293T cells cotransfected with IRF3 and IKKε; format: cell-based; settings: Homo sapiens, HEK-293T
Procedure: HEK293T cells were cotransfected in a 10-cm dish with IRF3 and IKKε expression plasmids using Lipofectamine 2000 (Invitrogen, Carlsbad, Calif.). The following day, cells were replated at 20,000 per well in 96-well plates and treated with test compounds (compounds according to Formula I) for 20 hours. Cell lysates were prepared and analyzed using an ELISA for phospho-Ser396 (anti-IRF3 capture antibody, Santa Cruz Biotechnology, Inc., Santa Cruz, Calif.; anti-p-Ser396 IRF3 detection antibody, Cell Signaling, Danvers, Mass.). pIRF3 levels in compound treated cells were normalized to DMSO treated cells (no compound). Cell viability was assayed in a parallel set of plates to monitor cytotoxic effects of the test compounds (CellTiter-Glo, Promega, Inc., Madison, Wis.). TBK1 activity was tested by Western blotting using a phospho-specific IRF7 antibody. Similar to above, HEK293T cells were transfected with IRF7 and TBK1 expression plasmids. Cells were seeded in 12-well plates at 150,000 per well and treated overnight with test compounds. Protein lysates were prepared and processed for Western blotting followed by detection using a phosphor-Ser477/Ser479 IRF7 antibody (BD Biosciences, San Jose, Calif.)

[4] = text bins, read-out: IC50 for inhibition of the kinase activity of IKKε
[5] = text bins, read-out: IC50 for inhibition of the kinase activity of TBK1
[6] = HEK293T cells, 20 hours, text bins, read-out: IC50 for inhibition of the in-situ IKKε-mediated phosphorylation of IRF3

| SMILES | pIC50 [1, 4] | pIC50 [2, 5] | pIC50 [3, 6] | pIC50 ([1]; Table 3, read-out: IKKε IC50) | pIC50 ([2]; Table 3, read-out: TBK1 IC50) | pIC50 ([3]; HEK293T cells in culture, Table 3, read-out: pIRF3 ELISA IC50) |
| --- | --- | --- | --- | --- | --- | --- |
| N#Cc1cc(-c2ccnc(Nc3ccc(CO)cc3)n2)ccc1OC1CCOCC1 [compound 499, 5-(2-{[4-(hydroxymethyl)phenyl]amino}pyrimidin-4-yl)-2-(tetrahydro-2H-pyran-4-yloxy)benzonitrile] | 7.30 to 8.30 | > 8.00 | 6.60 to 7.00 | 8.29 | 9.30 | 6.85 |
| COc1ccc(Nc2nccc(-c3ccc(OC4CCOCC4)c(C#N)c3)n2)cc1OCCCN1CCN(C(=O)C(C)C)CC1 [compound 524, 5-{2-[(4-methoxy-3-{3-[4-(2-methylpropanoyl)piperazin-1-yl]propoxy}phenyl)amino]pyrimidin-4-yl}-2-(tetrahydro-2H-pyran-4-yloxy)benzonitrile] | > 8.30 | > 8.00 | 6.60 to 7.00 | – | – | – |
| COc1cc(Nc2nccc(-c3ccc(OC4CCOCC4)c(C#N)c3)n2)ccc1C(=O)N1CCN(C(C)C)CC1 [compound 503, 5-{2-[(3-methoxy-4-{[4-(propan-2-yl)piperazin-1-yl]carbonyl}phenyl)amino]pyrimidin-4-yl}-2-(tetrahydro-2H-pyran-4-yloxy)benzonitrile] | > 8.30 | > 8.00 | > 7.00 | – | – | – |
| N#Cc1cc(-c2ccnc(Nc3ccc(N4CCOCC4)cc3)n2)ccc1NCc1ccccn1 [Example 64, 5-(2-{[4-(Morpholin-4-yl)phenyl]amino}pyrimidin-4-yl)-2-[(pyridin-2-ylmethyl)amino] benzonitrile] | 7.30 to 8.30 | > 8.00 | 6.30 to 6.60 | – | – | – |
| Cc1cc(Nc2nccc(-c3ccc(OC4CCOCC4)c(C#N)c3)n2)ccc1N1CCOCC1 [Example 18, 5-(2-{[3-methyl-4-(morpholin-4-yl)phenyl]amino}pyrimidin-4-yl)-2-(tetrahydro-2H-pyran-4-yloxy)benzonitrile] | > 8.30 | > 8.00 | 6.60 to 7.00 | – | – | – |
| COCC(=O)Nc1cccc(Nc2nccc(-c3ccc(OC4CCOCC4)c(C#N)c3)n2)c1 [compound 647, N-[3-({4-[3-Cyano-4-(tetrahydro-2H-pyran-4-yloxy)phenyl]pyrimidin-2-yl}amino)phenyl]-2-methoxyacetamide] | > 8.30 | – | > 7.00 | – | – | – |
| N#Cc1cc(-c2ccnc(Nc3ccc(S(=O)(=O)Nc4ccccn4)cc3)n2)ccc1OC1CCOCC1 [compound 593, 4-({4-[3-Cyano-4-(tetrahydro-2H-pyran-4-yloxy)phenyl]pyrimidin-2-yl}amino)-N-(pyridin-2-yl) benzenesulfonamide] | > 8.30 | – | > 7.00 | – | – | – |
| N#Cc1cc(-c2ccnc(Nc3ccc4[nH]cnc4c3)n2)ccc1OC1CCOCC1 [compound 583, 5-[2-(1H-Benzimidazol-5-ylamino)pyrimidin-4-yl]-2-(tetrahydro-2H-pyran-4-yloxy)benzonitrile] | > 8.30 | – | 6.30 to 6.60 | – | – | – |
| CN(C)C1CCN(c2cccc(Nc3nccc(-c4ccc(OC5CCOCC5)c(C#N)c4)n3)c2)C1 (stereo not shown) [compound 591, 5-[2-({3-[3-(Dimethylamino)pyrrolidin-1-yl]phenyl}amino)pyrimidin-4-yl]-2-(tetrahydro-2H-pyran-4-yloxy)benzonitrile] | > 8.30 | – | 6.60 to 7.00 | – | – | – |
| Cc1cn(Cc2cccc(Nc3nccc(-c4ccc(O[C@@H]5CCN(C(=O)CO)C5)c(C#N)c4)n3)c2)cn1 [compound 662, 2-{[(3R)-1-(Hydroxyacetyl)pyrrolidin-3-yl]oxy}-5-[2-({3-[(4-methyl-1H-imidazol-1-yl)methyl]phenyl}amino)pyrimidin-4-yl]benzonitrile] | > 8.30 | – | > 7.00 | – | – | – |

More lines, now with the values ahead:

| pIC50 [1, 4] | pIC50 [2, 5] | pIC50 [3, 6] | pIC50 ([1]; Table 3, read-out: IKKε IC50) | pIC50 ([2]; Table 3, read-out: TBK1 IC50) | pIC50 ([3]; HEK293T cells in culture, Table 3, read-out: pIRF3 ELISA IC50) | SMILES |
| --- | --- | --- | --- | --- | --- | --- |
| > 8.30 | > 8.00 | > 7.00 | – | – | – | COc1cc(Nc2nccc(-c3ccc(OC4CCOCC4)c(C#N)c3)n2)ccc1CO [compound 498, 5-(2-{[4-(hydroxymethyl)-3-methoxyphenyl]amino}pyrimidin-4-yl)-2-(tetrahydro-2H-pyran-4-yloxy)benzonitrile] |
| > 8.30 | > 8.00 | > 7.00 | – | – | – | COc1cc(-c2ccnc(Nc3ccc(N4CCOCC4)cc3)n2)cc(C#N)c1OC1CCN(C(=O)[C@@H](C)O)CC1 [compound 436, 2-({1-[(2R)-2-Hydroxypropanoyl]piperidin-4-yl}oxy)-3-methoxy-5-(2-{[4-(morpholin-4-yl)phenyl]amino}pyrimidin-4-yl)benzonitrile] |
| > 8.30 | > 8.00 | > 7.00 | – | – | – | COc1cc(Nc2nccc(-c3ccc(OC4CCOCC4)c(C#N)c3)n2)ccc1CN1CC(OC)C1 [compound 482, 5-[2-({3-Methoxy-4-[(3-methoxyazetidin-1-yl)methyl]phenyl}amino)pyrimidin-4-yl]-2-(tetrahydro-2H-pyran-4-yloxy)benzonitrile] |
| > 8.30 | > 8.00 | > 7.00 | – | – | – | N#Cc1cc(-c2ccnc(Nc3cccc(OCCN4CCOCC4)c3)n2)ccc1OC1CCOCC1 [compound 518, 5-[2-({3-[2-(Morpholin-4-yl)ethoxy]phenyl}amino)pyrimidin-4-yl]-2-(tetrahydro-2H-pyran-4-yloxy)benzonitrile] |
| > 8.30 | > 8.00 | > 7.00 | – | – | – | COc1cc(Nc2nccc(-c3ccc(OC4CCN(C(=O)CO)C4)c(C#N)c3)n2)ccc1N1CCOCC1 (stereo not shown) [Example 223, 2-{[1-(hydroxyacetyl)pyrrolidin-3-yl]oxy}-5-(2-{[3-methoxy-4-(morpholin-4-yl)phenyl]amino}pyrimidin-4-yl)benzonitrile] |
| > 8.30 | > 8.00 | > 7.00 | – | – | – | COc1cc(Nc2nccc(-c3ccc(OC4CCOCC4)c(C#N)c3)n2)ccc1OCCOCCNS(C)(=O)=O [Example 22] |
| > 8.30 | > 8.00 | > 7.00 | – | – | – | CCN(CC)CCOCCOc1cc(Nc2nccc(-c3ccc(OC4CCOCC4)c(C#N)c3)n2)ccc1OC [compound 531, 5-{2-[(3-{2-[2-(diethylamino)ethoxy]ethoxy}-4-methoxyphenyl)amino]pyrimidin-4-yl}-2-(tetrahydro-2H-pyran-4-yloxy)benzonitrile] |
| > 8.30 | > 8.00 | > 7.00 | – | – | – | N#Cc1cc(-c2ccnc(Nc3ccc(CS(=O)(=O)NCCCN4CCOCC4)cc3)n2)ccc1OC1CCOCC1 [compound 405, 1-[4-({4-[3-Cyano-4-(tetrahydro-2H-pyran-4-yloxy)phenyl]pyrimidin-2-yl}amino)phenyl]-N-[3-(morpholin-4-yl)propyl] methanesulfonamide] |
